For the data set, the system named is Anthophysa vegetans protozoa. Put plainly: Protozoan feeding-behaviour bioassay: turbidity (absorbance at 540 nm) of live bacterial feed remaining. Type of data set: cell-based. The method, then: The first step of the inventive process comprises adding protozoa and feed into test and control samples which contain inorganic buffers. The chemical substance whose toxic activity is being investigated is then added to the test samples but not to the control samples. The order of adding protozoa, feed and chemical substance is not critical. The amount of protozoa added is usually about at or below 1 x 10⁶ per ml. If dead bacteria are used as feed, they are added at sufficient concentrations to increase the turbidity of the medium to at least 0.3 at 540 nm in a 1.0 cm pathlength tube; this corresponds to concentration of about 2.5 x 10⁹ bacteria per ml. If live bacteria are added as feed, the inoculum level is about 0.01 to about 1% of a fully grown bacterial culture in the range of about 1 x 10⁶ to about 1 x 10⁸ bacteria per ml. […] A sample containing live bacteria is supplemented with a carbon source to support bacterial growth. The carbon sources are generally used at a final concentration of about 0.05%.
This reduction in turbidity generally takes about 1 to about 5 days. If the feed employs live bacteria, there is an initial increase in the turbidity. This increase is then followed by a decrease in turbidity in the control tubes as stated above. If the test chemical is not toxic to the protozoa, the turbidity decreases in the sample tube. If the test chemical is toxic to the protozoa, the turbidity will remain essentially unchanged. The size and volume of the resulting mixture are not critical, provided there is sufficient volume to permit either visual or spectrophotometrical observations of the change in turbidity of the microbial cultures. Typically, about 3 ml to about 5 ml samples were used.
Protozoa, Anthophysa vegetans at about 1 x 10⁵ per ml and a mixed bacteria population of soil bacteria containing but not limited to Alcaligenis and Psuedomonas at about 1 x 10⁶ per ml were inoculated into a growth medium as described above in "Culturing and Test Procedures". The bacteria multiplied in numbers and caused an initial increase in the turbidity (absorbance) of the growth medium, generally from about 0.03 to about 0.4, as measured at 540 nm in a 1.0 cm pathlength tube. After about one day of incubation, the bacterial growth ceased due to the limitation of carbon source. […] The protozoa preyed on the bacteria, leading to a reduction in bacterial cell concentration, indicated by a reduction of turbidity. This growth sequence is illustrated in Line A of Figure 2. If the bacterial cultures were grown without added protozoa, a similar increase in turbidity took place. However, there was no significant reduction in turbidity after the growth phase was completed. This is illustrated in Line B of Figure 2.
Anthophysa vegetans protozoa and live mixed population of soil bacteria containing but not limited to Psuedomonas and Alcaligenis were inoculated into a growth medium as described under "Culturing and Test Procedures". The test chemical, a phenol ethoxylate surfactant, Igepal CO 850 (GAF Chemicals Corp.), was added at different concentrations. A control without added surfactant was maintained. […] However, at about 0 and about 10 ppm surfactant, the absorbance decreased on further incubation. […] The tolerance level of the protozoa, (i.e., the concentration level at which feeding inhibition is first observed) is about 100 ppm Igepal CO 850. […] The protozoa preyed on the bacteria, resulting in reduced absorbance at 540 nm after two days incubation. […]

Take `O=[N+]([O-])c1ccc(O)cc1` [4-nitrophenol]: the LC₅₀ reads like this: (Protozoa Inocula Level 0.0001X) 0.46 ppm; (Protozoa Inocula Level 0.001X) 5.6 ppm; (Protozoa Inocula Level 0.01X) 12.5 ppm; (Protozoa Inocula Level 0.1X) 19.5 ppm; (Protozoa Inocula Level 1.0X) 36 ppm.
